In the OligoGym collection:
Oligonucleotides are given in HELM: sugar(base)linkage, 5' to 3'; d 2'-deoxyribose, r ribose, m 2'-O-methylribose, p phosphate. ss, as = sense and antisense strand

target: TMEM63B; experiment: reporter assay of Huesken 2005; conditions: siRNA
Further: test concentration or dose not given here.

Substance	normalised inhibition (eCFP-eYFP dual reporter) [%]
RNA1{r(C)p.r(A)p.r(G)p.r(C)p.r(U)p.r(C)p.r(C)p.r(G)p.r(U)p.r(U)p.r(G)p.r(A)p.r(C)p.r(U)p.r(U)p.r(U)p.r(G)p.r(A)p.r(C)p.d(T)p.d(T)}|RNA2{r(G)p.r(U)p.r(C)p.r(A)p.r(A)p.r(A)p.r(G)p.r(U)p.r(C)p.r(A)p.r(A)p.r(C)p.r(G)p.r(G)p.r(A)p.r(G)p.r(C)p.r(U)p.r(G)p.d(G)p.d(A)}$$$RNA1{StrandType:ss}|RNA2{StrandType:as}$	84.4
RNA1{r(G)p.r(U)p.r(C)p.r(C)p.r(C)p.r(C)p.r(A)p.r(A)p.r(A)p.r(U)p.r(C)p.r(U)p.r(G)p.r(C)p.r(G)p.r(A)p.r(A)p.r(A)p.r(U)p.d(T)p.d(T)}|RNA2{r(A)p.r(U)p.r(U)p.r(U)p.r(C)p.r(G)p.r(C)p.r(A)p.r(G)p.r(A)p.r(U)p.r(U)p.r(U)p.r(G)p.r(G)p.r(G)p.r(G)p.r(A)p.r(C)p.d(A)p.d(G)}$$$RNA1{StrandType:ss}|RNA2{StrandType:as}$	82
RNA1{r(G)p.r(A)p.r(G)p.r(G)p.r(C)p.r(G)p.r(C)p.r(A)p.r(A)p.r(C)p.r(G)p.r(U)p.r(G)p.r(A)p.r(A)p.r(G)p.r(C)p.r(G)p.r(G)p.d(T)p.d(T)}|RNA2{r(C)p.r(C)p.r(G)p.r(C)p.r(U)p.r(U)p.r(C)p.r(A)p.r(C)p.r(G)p.r(U)p.r(U)p.r(G)p.r(C)p.r(G)p.r(C)p.r(C)p.r(U)p.r(C)p.d(T)p.d(C)}$$$RNA1{StrandType:ss}|RNA2{StrandType:as}$	59.5
RNA1{r(C)p.r(U)p.r(C)p.r(C)p.r(G)p.r(U)p.r(U)p.r(G)p.r(A)p.r(C)p.r(U)p.r(U)p.r(U)p.r(G)p.r(A)p.r(C)p.r(C)p.r(A)p.r(A)p.d(T)p.d(T)}|RNA2{r(U)p.r(U)p.r(G)p.r(G)p.r(U)p.r(C)p.r(A)p.r(A)p.r(A)p.r(G)p.r(U)p.r(C)p.r(A)p.r(A)p.r(C)p.r(G)p.r(G)p.r(A)p.r(G)p.d(C)p.d(T)}$$$RNA1{StrandType:ss}|RNA2{StrandType:as}$	98.6
RNA1{r(U)p.r(U)p.r(A)p.r(U)p.r(C)p.r(G)p.r(G)p.r(C)p.r(A)p.r(A)p.r(C)p.r(G)p.r(C)p.r(C)p.r(A)p.r(U)p.r(G)p.r(G)p.r(A)p.d(T)p.d(T)}|RNA2{r(U)p.r(C)p.r(C)p.r(A)p.r(U)p.r(G)p.r(G)p.r(C)p.r(G)p.r(U)p.r(U)p.r(G)p.r(C)p.r(C)p.r(G)p.r(A)p.r(U)p.r(A)p.r(A)p.d(A)p.d(G)}$$$RNA1{StrandType:ss}|RNA2{StrandType:as}$	62.7
RNA1{r(A)p.r(C)p.r(U)p.r(A)p.r(C)p.r(A)p.r(A)p.r(G)p.r(C)p.r(G)p.r(G)p.r(G)p.r(A)p.r(G)p.r(A)p.r(A)p.r(G)p.r(G)p.r(A)p.d(T)p.d(T)}|RNA2{r(U)p.r(C)p.r(C)p.r(U)p.r(U)p.r(C)p.r(U)p.r(C)p.r(C)p.r(C)p.r(G)p.r(C)p.r(U)p.r(U)p.r(G)p.r(U)p.r(A)p.r(G)p.r(U)p.d(C)p.d(T)}$$$RNA1{StrandType:ss}|RNA2{StrandType:as}$	72
RNA1{r(G)p.r(A)p.r(G)p.r(A)p.r(G)p.r(G)p.r(C)p.r(G)p.r(C)p.r(A)p.r(A)p.r(C)p.r(G)p.r(U)p.r(G)p.r(A)p.r(A)p.r(G)p.r(C)p.d(T)p.d(T)}|RNA2{r(G)p.r(C)p.r(U)p.r(U)p.r(C)p.r(A)p.r(C)p.r(G)p.r(U)p.r(U)p.r(G)p.r(C)p.r(G)p.r(C)p.r(C)p.r(U)p.r(C)p.r(U)p.r(C)p.d(G)p.d(G)}$$$RNA1{StrandType:ss}|RNA2{StrandType:as}$	56.8
RNA1{r(C)p.r(G)p.r(C)p.r(A)p.r(U)p.r(C)p.r(C)p.r(C)p.r(A)p.r(G)p.r(G)p.r(C)p.r(C)p.r(U)p.r(G)p.r(C)p.r(U)p.r(C)p.r(A)p.d(T)p.d(T)}|RNA2{r(U)p.r(G)p.r(A)p.r(G)p.r(C)p.r(A)p.r(G)p.r(G)p.r(C)p.r(C)p.r(U)p.r(G)p.r(G)p.r(G)p.r(A)p.r(U)p.r(G)p.r(C)p.r(G)p.d(C)p.d(A)}$$$RNA1{StrandType:ss}|RNA2{StrandType:as}$	74.9
RNA1{r(U)p.r(C)p.r(A)p.r(C)p.r(C)p.r(A)p.r(C)p.r(C)p.r(A)p.r(U)p.r(G)p.r(G)p.r(A)p.r(C)p.r(A)p.r(A)p.r(G)p.r(U)p.r(U)p.d(T)p.d(T)}|RNA2{r(A)p.r(A)p.r(C)p.r(U)p.r(U)p.r(G)p.r(U)p.r(C)p.r(C)p.r(A)p.r(U)p.r(G)p.r(G)p.r(U)p.r(G)p.r(G)p.r(U)p.r(G)p.r(A)p.d(T)p.d(G)}$$$RNA1{StrandType:ss}|RNA2{StrandType:as}$	67.7
RNA1{r(A)p.r(U)p.r(C)p.r(U)p.r(G)p.r(C)p.r(G)p.r(A)p.r(A)p.r(A)p.r(U)p.r(A)p.r(C)p.r(A)p.r(U)p.r(C)p.r(G)p.r(C)p.r(U)p.d(T)p.d(T)}|RNA2{r(A)p.r(G)p.r(C)p.r(G)p.r(A)p.r(U)p.r(G)p.r(U)p.r(A)p.r(U)p.r(U)p.r(U)p.r(C)p.r(G)p.r(C)p.r(A)p.r(G)p.r(A)p.r(U)p.d(T)p.d(T)}$$$RNA1{StrandType:ss}|RNA2{StrandType:as}$	50.5
RNA1{r(G)p.r(G)p.r(A)p.r(U)p.r(G)p.r(A)p.r(U)p.r(C)p.r(U)p.r(G)p.r(G)p.r(U)p.r(G)p.r(A)p.r(A)p.r(G)p.r(C)p.r(G)p.r(G)p.d(T)p.d(T)}|RNA2{r(C)p.r(C)p.r(G)p.r(C)p.r(U)p.r(U)p.r(C)p.r(A)p.r(C)p.r(C)p.r(A)p.r(G)p.r(A)p.r(U)p.r(C)p.r(A)p.r(U)p.r(C)p.r(C)p.d(T)p.d(C)}$$$RNA1{StrandType:ss}|RNA2{StrandType:as}$	63.9
RNA1{r(U)p.r(G)p.r(C)p.r(C)p.r(G)p.r(U)p.r(G)p.r(G)p.r(G)p.r(G)p.r(A)p.r(G)p.r(C)p.r(C)p.r(A)p.r(C)p.r(G)p.r(C)p.r(C)p.d(T)p.d(T)}|RNA2{r(G)p.r(G)p.r(C)p.r(G)p.r(U)p.r(G)p.r(G)p.r(C)p.r(U)p.r(C)p.r(C)p.r(C)p.r(C)p.r(A)p.r(C)p.r(G)p.r(G)p.r(C)p.r(A)p.d(G)p.d(G)}$$$RNA1{StrandType:ss}|RNA2{StrandType:as}$	62.7
RNA1{r(C)p.r(G)p.r(G)p.r(C)p.r(C)p.r(G)p.r(C)p.r(C)p.r(G)p.r(A)p.r(G)p.r(A)p.r(G)p.r(G)p.r(C)p.r(G)p.r(C)p.r(A)p.r(A)p.d(T)p.d(T)}|RNA2{r(U)p.r(U)p.r(G)p.r(C)p.r(G)p.r(C)p.r(C)p.r(U)p.r(C)p.r(U)p.r(C)p.r(G)p.r(G)p.r(C)p.r(G)p.r(G)p.r(C)p.r(C)p.r(G)p.d(A)p.d(G)}$$$RNA1{StrandType:ss}|RNA2{StrandType:as}$	72.9
RNA1{r(G)p.r(C)p.r(G)p.r(A)p.r(A)p.r(A)p.r(U)p.r(A)p.r(C)p.r(A)p.r(U)p.r(C)p.r(G)p.r(C)p.r(U)p.r(C)p.r(A)p.r(G)p.r(G)p.d(T)p.d(T)}|RNA2{r(C)p.r(C)p.r(U)p.r(G)p.r(A)p.r(G)p.r(C)p.r(G)p.r(A)p.r(U)p.r(G)p.r(U)p.r(A)p.r(U)p.r(U)p.r(U)p.r(C)p.r(G)p.r(C)p.d(A)p.d(G)}$$$RNA1{StrandType:ss}|RNA2{StrandType:as}$	40.2
